From US6153587A, “Conformationally constrained LH-RH analogues, their uses and pharmaceutical compositions containing them” (Laboratoire THERAMEX, priority 1996, dated 2000)
pKi: −log10 of the molar value. Values joined by “and” are separate entries in the source; they are usually repeats but may differ in a detail not shown here. Identical values can stand only once. Like-named read-outs stand apart in the source and are kept apart here. Where a SMILES comes first, the peptide text is derived from it. [ ]: non-standard residue; d: D form. The star is where a group is joined. dPhe(4-Cl) = N[C@H](Cc1ccc(Cl)cc1)C(=O)O; d2Nal = N[C@H](Cc1ccc2ccccc2c1)C(=O)O; Lys(iPr) = CC(C)NCCCC[C@H](N)C(=O)O; d3Pal = N[C@H](Cc1cccnc1)C(=O)O; Nicotinoyl = O=C(c1cccnc1)*

Assays:
LH-RH receptors [1] = molecular target: T1, LH-RH receptors (Rattus norvegicus, UniProt P30969); assay: Inhibition of ovulation in female Wistar rats; type: in vivo
T1 construct: from tissue; host or cells: rat pituitary membrane fraction (female Sprague Dawley)
T1 sequence (P30969 1-327): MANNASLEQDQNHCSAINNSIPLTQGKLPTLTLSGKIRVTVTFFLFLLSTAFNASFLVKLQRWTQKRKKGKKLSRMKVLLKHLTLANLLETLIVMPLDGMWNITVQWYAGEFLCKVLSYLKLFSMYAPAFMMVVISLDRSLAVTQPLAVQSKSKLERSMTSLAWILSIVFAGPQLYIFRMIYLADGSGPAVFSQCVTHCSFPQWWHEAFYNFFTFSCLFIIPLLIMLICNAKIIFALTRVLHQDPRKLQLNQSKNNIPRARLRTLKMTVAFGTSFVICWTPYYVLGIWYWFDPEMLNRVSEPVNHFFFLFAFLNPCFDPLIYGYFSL
Description: The peptides according to the general formula (IIb) exert an antagonist activity upon the LH-RH receptors in vivo, resulting in the inhibition of ovulation in the female.
Adult female Wistar rats are first monitored for normal estrous cyclicity by daily vaginal smears. After at least 2 regular 4-day cycles, they received by subcutaneous injection either the vehicle alone (0.5 ml of a mixture of propylene-glycol and water: 20/80 vol/vol), or the LH-RH antagonist according to the formula (IIb) dissolved in this vehicle, around 2:00 PM on the day of proestrus.
If effective, LH-RH antagonists totally block ovulation. […] The 50% inhibitory dose of antide is slightly lower than 1 μg/rat.

LH-RH receptors [2] = molecular target: T1, LH-RH receptors; assay: Affinity for LH-RH receptors: [125I]-buserelin binding to rat pituitary membranes; settings: for Ki / pKi: 2 hours at 4° C., Ki from IC50 by Cheng-Prusoff; for Ki: 20 to 70 μM [125I]-buserelin, read-out: pKi (affinity for LH-RH receptors) (converted); for IC50 range in words / pKi: [125I]-buserelin; for pKi: pKi (affinity for LH-RH receptors)
Description: This affinity has been determined according to the following method:
Pituitaries from female Sprague Dawley rats were removed and homogenized with a Potter homogenizer in a 25 mM HEPES buffer (pH 7.4) containing 0.32 M sucrose, 100 μg/l PMSF (phenylmethylsulfonylfluoride), 5.6 U/l aprotinin and 10,000 U/l bacitracin. The homogenates were centrifuged at 700 g for 10 minutes and the supernatants were further centrifuged at 12,500 g for 30 minutes. The pellets were homogenized and centrifuged as described above, in the same buffer but without sucrose.
All homogenization, centrifugation and subsequent incubation steps were carried out at 4° C.
The assay was terminated by filtration under suction (Brandel 96-well harvester) through Whatman GF/B glass fiber filters. […] Each compound was tested in at least 4 experiments.
Specific binding data were analysed according to Scatchard's method.
For each test compound, the inhibitory constant (Ki) was calculated from its IC50 according to the Cheng and Prussofs equation: Ki=IC50 /(1+[radioligand]/Kd). Ki was then transformed into pKi (=-log Ki) for final expression of affinity scales.

LH-RH receptors [3] = molecular target: T1, LH-RH receptors; assay: Total plasma testosterone in male Sprague-Dawley rats after subcutaneous injection; type: in vivo; settings: 30 nanograms/kg subcutaneous; for Total testosterone: plasma at two hours, male Sprague-Dawley rats
Description: (§1) The peptides according to the general formula (IIa) exert an agonist activity upon the LH-RH receptors in vivo, resulting in the induction of ovulation in the female and in the stimulation of testosterone secretion in the male following acute subcutaneous administration.
Adult male Sprague-Dawley rats are treated by a subcutaneous injection of LH-RH agonists at the same dose of 30 nanograms/kg dissolved in PBS. Two hours later, blood samples are drawn for total plasma testosterone measurement by direct radioimmunoassay (Immunotech). At this dose, LH-RH itself is not active standard LH-RH agonists and selected examples according to formula (Ila) are compared in Table 3 below: […]

LH-RH receptors [4] = molecular target: T1, LH-RH receptors; assay: Induction of ovulation in pentobarbital-blocked female Wistar rats; type: in vivo; settings: subcutaneous
Description: as §1
Adult female Wistar rats are first monitored for normal estrous cyclicity by daily vaginal smears. After at least 2 regular 4-day cycles, they all receive an intraperitoneal injection of 50 mg/kg of sodium pentobarbital around 2:00 PM on the day of proestrus, which blocks the spontaneous ovulation in the negative control animals receiving in addition only the subcutaneous vehicle (PBS: phosphate buffered saline, 0.05 M, pH 7.4 containing 0.1% bovine serum albumin). At the same time, test animals are injected subcutaneously with LH-RH, standard LH-RH agonists or examples according to the formula (Ha), at various doses in solution in the vehicle described above. The following morning, the oviducts are excised and carefully dissected to search for ovocytes. None are found in the negative pentobarbital-blocked animals.
If effective, LH-RH agonists induce ovulation during the night between proestrus and estrus. The percentage of ovulating female rats, defined by the presence of at least one ovocyte in one of the two oviducts, is plotted as a function of the injected dose.

Row | Ki (LH-RH receptors [2]) | IC50 range in words (LH-RH receptors [2]) | Total testosterone (LH-RH receptors [3]) | ED50 (dose producing 50% of ovulation) (LH-RH receptors [4]) | SMILES | other results
1 | 0.603 nM | subnanomolar range |  |  | CC(=O)N[C@H](Cc1ccc2ccccc2c1)C(=O)N[C@H](Cc1ccc(Cl)cc1)C(=O)N[C@H](Cc1cccnc1)C(=O)N[C@@H](CO)C(=O)N[C@@H](CCCCNC(=O)c1cccnc1)C(=O)N[C@H](CCCCNC(=O)c1cccnc1)C(=O)N[C@@H](CC(C)C)C(=O)N[C@@H](CCCCNC(C)C)C(=O)N1CCC[C@H]1C(=O)N[C@H](C)C(N)=O [Antide] (Ac-[d2Nal][dPhe(4-Cl)][d3Pal]SK(Nicotinoyl)[dK](Nicotinoyl)L[Lys(iPr)]P[dA]-NH2; N-terminus and C-terminus assumed) | Number of ovulating females/total number of treated females (LH-RH receptors [1]; dose 0.5 μg/rat subcutaneous): 4/5; Number of ovulating females/total number of treated females (LH-RH receptors [1]; dose 1 μg/rat subcutaneous): 5/16; Number of ovulating females/total number of treated females (LH-RH receptors [1]; dose 2.5 μg/rat subcutaneous): 2/6; Number of ovulating females/total number of treated females (LH-RH receptors [1]; dose 5 μg/rat subcutaneous): 0/11; Number of ovulating females/total number of treated females (LH-RH receptors [1]; dose 10 μg/rat subcutaneous): 0/8; 50% inhibitory dose (LH-RH receptors [1]; inhibition of ovulation, subcutaneous): lower than 1 μg/rat
2 | < 1 nM and 0.126 nM | subnanomolar range |  | 4.8 nanograms/rat | CCNC(=O)[C@@H]1CCCN1C(=O)[C@H](CCCN=C(N)N)NC(=O)[C@H](CC(C)C)NC(=O)[C@@H](Cc1c[nH]c2ccccc12)NC(=O)[C@H](Cc1ccc(O)cc1)NC(=O)[C@H](CO)NC(=O)[C@H](Cc1c[nH]c2ccccc12)NC(=O)[C@H](Cc1cnc[nH]1)NC(=O)[C@@H]1CCC(=O)N1 [Deslorelin] | 
3 | < 1 nM and 0.105 nM | subnanomolar range | 12.7 ± 1.9 ng/mL |  | CCNC(=O)[C@@H]1CCCN1C(=O)[C@H](CCCNC(=N)N)NC(=O)[C@H](CC(C)C)NC(=O)[C@@H](Cc1cn(Cc2ccccc2)cn1)NC(=O)[C@H](Cc1ccc(O)cc1)NC(=O)[C@H](CO)NC(=O)[C@H](Cc1c[nH]c2ccccc12)NC(=O)[C@H](Cc1cnc[nH]1)NC(=O)[C@@H]1CCC(=O)N1 [Histrelin] | 
4 |  |  |  | 15 nanograms/rat | CC(C)C[C@H](NC(=O)CNC(=O)[C@H](Cc1ccc(O)cc1)NC(=O)[C@H](CO)NC(=O)[C@H](Cc1c[nH]c2ccccc12)NC(=O)[C@H](Cc1c[nH]cn1)NC(=O)[C@@H]1CCC(=O)N1)C(=O)N[C@@H](CCCNC(=N)N)C(=O)N1CCC[C@H]1C(=O)NCC(N)=O [LH-RH] | activity on testosterone secretion, in words (LH-RH receptors [3]): not active
5 |  |  | 11.9 ± 1.5 ng/mL | 1.9 nanograms/rat | CCNC(=O)[C@@H]1CCCN1C(=O)[C@H](CCCNC(=N)N)NC(=O)[C@H](CC(C)C)NC(=O)[C@@H](CC(C)C)NC(=O)[C@H](Cc1ccc(O)cc1)NC(=O)[C@H](CO)NC(=O)[C@H](Cc1c[nH]c2ccccc12)NC(=O)[C@H](Cc1c[nH]cn1)NC(=O)[C@@H]1CCC(=O)N1 [Leuprorelin] | 
6 | < 1 nM and 0.141 nM | subnanomolar range | 12.1 ± 0.7 ng/mL | 2.9 nanograms/rat | CC(C)C[C@H](NC(=O)[C@@H](Cc1c[nH]c2ccccc12)NC(=O)[C@H](Cc1ccc(O)cc1)NC(=O)[C@H](CO)NC(=O)[C@H](Cc1c[nH]c2ccccc12)NC(=O)[C@H](Cc1c[nH]cn1)NC(=O)[C@@H]1CCC(=O)N1)C(=O)N[C@@H](CCCNC(=N)N)C(=O)N1CCC[C@H]1C(=O)NCC(N)=O [Tryptorelin] | 

Row | SMILES | Ki (LH-RH receptors [2]) | IC50 range in words (LH-RH receptors [2]) | Total testosterone (LH-RH receptors [3]) | ED50 (dose producing 50% of ovulation) (LH-RH receptors [4]) | other results
7 | CCNC(=O)[C@@H]1CCCN1C(=O)[C@H](CCCNC(=N)N)NC(=O)[C@H](CC(C)C)NC(=O)[C@@H](COC(C)(C)C)NC(=O)[C@H](Cc1ccc(O)cc1)NC(=O)[C@H](CO)NC(=O)[C@H](Cc1c[nH]c2ccccc12)NC(=O)[C@H](Cc1cnc[nH]1)NC(=O)[C@@H]1CCC(=O)N1 [Buserelin] |  | subnanomolar range | 15.4 ± 0.71 ng/mL |  | pKi (LH-RH receptors [2]): > 9.00 and 9.37
8 | CC(C)C[C@H](NC(=O)[C@@H](COC(C)(C)C)NC(=O)[C@H](Cc1ccc(O)cc1)NC(=O)[C@H](CO)NC(=O)[C@H](Cc1c[nH]c2ccccc12)NC(=O)[C@H](Cc1cnc[nH]1)NC(=O)[C@@H]1CCC(=O)N1)C(=O)N[C@@H](CCCNC(=N)N)C(=O)N1CCC[C@H]1C(=O)NNC(N)=O [Goserelin] |  |  | 15.0 ± 2.5 ng/mL | 4.3 nanograms/rat | pKi (LH-RH receptors [2]): 8.58
